Laboratory results as given in US4043994A, “New pentapeptides and methods for their production” (Parke, Davis & Company, priority 1976, dated 1977).
Where “and” joins values, the source holds several entries; their conditions need not be identical. Identical values can stand only once. Ends that are not written are not given here.

System: LRF (luteinizing hormone release factor) induced luteinizing hormone (LH) release
Assay: In vitro LRF antagonist test in rat anterior pituitary cell cultures
Format: cell-based
Settings: for LH Value: culture medium
Excerpt: Pentapeptides of this invention were screened for LRF antagonist activity in vitro using rat anterior pituitary cell cultures as described by Vale et. al. [Endocrinology, 91, 562 (1972)]. The inhibition of LRF (luteinizing hormone release factor) induced luteinizing hormone (LH) release into the culture medium is the endpoint in this in vitro bioassay.

[1] = compound 1×10^-6 molar, LRF 2.5×10^-10 molar
[2] = compound 1×10^-6 molar, LRF 5×10^-10 molar
[3] = compound 5×10^-6 molar, LRF 5×10^-10 molar

Compound	% LH Release Inhibition [1] [%]	LH Value [1] [ng/mL]	% LH Release Inhibition [2] [%]	LH Value [2] [ng/mL]	% LH Release Inhibition [3] [%]	LH Value [3] [ng/mL]	LH Value (LRF alone 2.5×10^-10 molar)	LH Value (LRF alone 2.5×10^-10 molar, listed as LRF control) [ng/mL]	LH Value (LRF alone 5×10^-10 molar) [ng/mL]
CCNC(=O)C1CCCN1C(=O)[C@@H](C)NC(=O)[C@H](Cc1ccc(OCc2ccccc2)cc1)NC(=O)[C@H](COCc1ccccc1)NC(=O)[C@@H](Cc1c[nH]c2ccccc12)NC(=O)OC(C)(C)C (mixture of isomers) [N^α -t-Butoxycarbonyl-D-tryptophyl-O-benzyl-L-seryl-O-benzyl-L-tyrosyl-D-alanyl-DL-proline N-ethylamide]	84	10.61	43	34.51	90	14.02	–	–	–
LRF Control: luteinizing hormone releasing factor, also referred to as luteinizing hormone releasing hormone, or LH-RH; the stimulus in the assay (QHWSYGLRPG; ends and bridges not checked; UniProt P01148 24-33, looked up) [reference compound]	–	–	–	–	–	–	49.90 ng/mL and 28.52 ng/mL	51.62	52.93
N^α -t-Butoxycarbonyl-N^im -benzyl-L-histidyl-O-benzyl-L-seryl-O-benzyl-L-tyrosyl-D-alanyl-L-leucine methyl ester	72	20.26	–	–	–	–	–	–	–
N^α -t-Butoxycarbonyl-N^im -benzyl-L-histidyl-O-benzyl-L-seryl-O-benzyl-L-tyrosyl-D-alanyl-L-leucyl hydrazide	71	19.35	–	–	–	–	–	–	–
